Where a name gives a salt, the structure may show the parent alone.
Row | melting point [°C] | Structure (SMILES)
1 | 92 to 95 | CCCCOC(=O)c1ccc2c(c1)ncn2-c1cccc(N2CCN(CCOCC)CC2)c1 (as salt: HCl) [Compound 1c, n-Butyl 1-(3-(4-(ethoxyethyl)-1-piperazinyl)-phenyl)-benzimidazole-5-carboxylate]
2 | 154 to 160 | CCOCCN1CCN(c2cccc(-n3cnc4cc(C(=O)OCC(C)C)ccc43)c2)CC1 (as salt: HCl) [Compound 1d, iso-Butyl 1-(3-(4-(ethoxyethyl)-1-piperazinyl)-phenyl)-benzimidazole-5-carboxylate]
3 | 159 to 162 | COCCN1CCN(c2cccc(-n3cnc4cc(C(=O)OCCO)ccc43)c2)CC1 (as salt: HCl) [Compound 1f, 2-Hydroxyethyl 1-(3-(4-(methoxyethyl)-1-piperazinyl)-phenyl)-benzimidazole-5-carboxylate]
4 | 148 to 152 | CCCCOC(=O)c1ccc2c(c1)ncn2-c1cccc(N2CCN(CCOC)CC2)c1 (as salt: HCl) [Compound 1g, n-Butyl 1-(3-(4-(methoxyethyl)-1-piperazinyl)-phenyl)-benzimidazole-5-carboxylate]
5 | 173 to 178 | COCCOC(=O)c1ccc2c(c1)ncn2-c1cccc(N2CCN(CCOC)CC2)c1 (as salt: HCl) [Compound 1e, 2-Methoxyethyl 1-(3-(4-(methoxyethyl)-1-piperazinyl)-phenyl)-benzimidazole-5-carboxylate]

— patent publication US20060241101A1, “Novel benzimidazole derivatives and pharmaceutical compositions comprising these compounds” (priority 2003, published 2006)
